Legend:
[1] = system: Wnt signaling-related proteins; test: PI-3 kinase / Wnt signaling proteins and β-catenin expression in LPS-stimulated RAW 264.7 cells; type: cell-based, mouse
Experimental: A test was carried out to examine the effects of the inventive composition on the expressions of PI-3 kinase (which influences the NF-κB signaling pathway) and Wnt signaling-related proteins in RAW 264.7 cells. Specifically, RAW 264.7 cells were treated with the inventive composition (20 μM thio-Cl-IB-MECA), and after 30 minutes, were stimulated by LPS. At intervals of 5, 15, 30 and 60 minutes after culture, proteins were extracted from all the cells, and the effects of the inventive composition on the expressions of the proteins were measured in comparison with those in the control group treated with only LPS.
In order to examine the intranuclear movement of β-catenin and the accumulation of β-catenin in the cytoplasm, RAW 264.7 cells were treated with each of 5, 10 and 20 μM of the inventive composition (thio-Cl-IB-MECA), and after 30 minutes, the cells were stimulated by LPS. After 1 hour of culture, the cells were collected and separated into a nuclear extract and a cytosol extract. The expressions of β-catenin protein in the cytosol and nuclear portions were analyzed by Western blot, and the results of the analysis are shown in FIG. 7b. […] When no LPS stimulation is applied, β-catenin is degraded by phosphorylation.

ICR white mice = test: Animal toxicity test, single oral dose; type: in vivo; settings: oral 1500 mg/kg, n=10
Experimental: In order to examine the toxicities of thio-Cl-IB-MECA and thio-IB-MECA, each of the compounds was administered orally to ICR white mice (n=10, 25 g) at a dose of 1500 mg/kg weight, and the behavioral change and state of the mice were observed.

PC-3 = test: Morphological change of PC-3 cells; type: cell-based, human; settings: 40, 20 and 10 μM, 48 hours
Experimental: Each of LNCaP and PC-3 prostate cancer cell lines was treated with 40, 20 and 10 μM of thio-Cl-IB-MECA and cultured for 48 hours, and then the morphological change of the cells was observed.
Specifically, each type of the prostate cancer cells was diluted with 10% FBS (Fetal Bovine Serum)-containing medium to a density of 1.0×10^6 cells per 100 mm culture dish and cultured under the conditions of 37° C. and 5% CO2, followed by washing twice with PBS (Phosphate Buffered Saline). Thio-Cl-IB-MECA was diluted in 10% FBS-containing medium at required concentration, and then 10 ml of the culture medium prepared in the 100 mm culture dish was added thereto and incubated for a given time. The morphology of the cells was observed as a function of treatment time and concentration (FIGS. 11a and 11b).

LNCaP cells = test: Western blot of cell cycle regulation-related proteins and Wnt signaling in LNCaP cells; type: cell-based, human
Experimental: A test was carried out to examine whether the inhibitory effects of thio-Cl-IB-MECA on the proliferation of LNCaP cells and PC-3 cells are attributable to regulation of the Wnt signaling pathway.
(§1) Specifically, each type of LNCaP cells and PC-3 cells was diluted with 10% FBS-containing medium to a density of 1.0×10^6 cells per 100 mm culture dish and cultured under the conditions of 37° C. and 5% CO2 for 24 hours, followed by washing twice with PBS. Thio-Cl-IB-MECA was diluted in 10% FBS-containing medium at required concentration, and then 10 ml of the culture medium prepared in the 100 mm culture dish was added thereto and cultured for a given period. The non-adherent cells and adherent cells in the cell medium were collected and washed twice with PBS, after which the cells were suspended in boiling cell lysis buffer and heated at 100° C. for 5 minutes. The cells were cooled and then stored at […], and the stored cells were thawed at 37° C. immediately before use in protein quantification and electrophoresis. Protein quantification was performed using the BCA method, and […] of protein was electrophoresed on 8-12% SDS-polyacrylamide gel at 150 V for 110 minutes. The gel at the desired site was cut and transferred to a PVDF (polyvinylidene fluoride) for 1 hour, and after which it was washed twice with PBST and stirred in blocking buffer at room temperature for 1 hour. Then, the membrane was washed three times with PBST for 5 minutes each time, after which primary antibody was diluted at a ratio of 1:1,000-1:2,000 with 3% skimmed milk/PBST, and it was sealed together with the membrane and incubated with stirring at 4° C. for 12 hours or more. The membrane was washed 2-3 times with PBST for 5 minutes each time, after which HRP-conjugated secondary antibody was diluted at a ratio of 1:1,500-1:2,000 and incubated with the membrane at room temperature for 2-3 hours. The membrane was washed three times with PBST for 5 minutes each time and treated with a Western blot substrate (WESTSAVE Up™), and the produced luminescence was examined using LAS-3000.

HCT 116 cells = test: Western blot of cell cycle regulation-related proteins and Wnt signaling in HCT 116 cells; type: cell-based, human; settings: 40 μM
Experimental: Because it was confirmed that thio-Cl-IB-MECA arrests the G1 phase of human colorectal cancer HCT 116 cells, a test was carried out to examine whether cell cycle regulation-related proteins involved in the G1 phase are expressed and to examine the expression of Wnt-related proteins in order to examine whether the inhibitory effect of thio-Cl-IB-MECA on the proliferation of cancer cells is attributable to regulation of the signaling pathway.
as §1, with “HCT 116” for “each type of LNCaP”, “were” for “and PC-3 cells was”, “1×10^6” for “1.0×10^6”, “to a concentration of 40 μM,” for “at required concentration,”

[2] = 20 μM, LPS stimulation, 5, 15, 30, 60 min

CNC(=O)[C@H]1S[C@@H](n2cnc3c(NCc4cccc(I)c4)nc(Cl)nc32)[C@H](O)[C@@H]1O [thio-Cl-IB-MECA, 2-chloro-N^6-(3-iodobenzyl)-4′-thioadenosine-5′-N-methyluronamide]
expression of p-AKT [1, 2]: also inhibited at 30 min and 60 min
expression of p-GSK 3α/β [1, 2]: inhibited at 30 min and 60 min
expression of p-β-catenin ([1]; 5, 10 and 20 μM, LPS, 1 hour): concentration-dependently inhibited
expressions of β-catenin in the cytosol and nuclear portions ([1]; 5, 10 and 20 μM, LPS, 1 hour): concentration-dependently inhibited
survival and side effects up to 7 days after administration (ICR white mice): survived healthfully without particular side effects
number of the cells, PC-3 (PC-3): decreased in a concentration-dependent manner
Wnt signaling pathway, LNCaP (LNCaP cells): inhibited the Wnt signaling pathway
expression and RB phosphorylation of cyclin D, cyclin A, CDK4, c-myc and PCNA, LNCaP (LNCaP cells): inhibited the expression and RB phosphorylation
expression of p53 and p27, LNCaP (LNCaP cells): increased the expression
Wnt signaling pathway (HCT 116 cells): inhibited the Wnt signaling pathway
expression of Rb and p-Rb (HCT 116 cells): also inhibited the expression
expression of cyclin D1, cyclin A and cyclin E (HCT 116 cells): inhibited the expression
expression of p53 (HCT 116 cells): increased the expression
